The record followed here is DBAASP.

Values after ≈ are worked out from the molar mass of the structure shown.

Holding throughout (experiment): ≥ marks a high value that may be exact or a test limit, other limits are often not marked, values filed in µg/mL are converted to µM
Assay [1] has as its system Bacillus megaterium ATCC 10778.
Assay [2] relates to Bacillus subtilis ATCC 6633.
Assay [3] concerns Candida albicans MDM8.
The test system of assay [4] is Candida tropicalis IOC 4560.
The subject of assay [5] is Enterobacter cloacae beta-12.
In assay [6] the test system is Escherichia coli SBS 363.
For assay [7], the system named is Micrococcus luteus A270.
The subject of assay [8] is Pseudomonas aeruginosa ATCC 27853.
In assay [9] the test system is Serratia marcescens ATCC 4112.
Assay [10] deals with Staphylococcus aureus ATCC 29213.
The subject of assay [11] is Escherichia coli W3110.
Assay [12] relates to Klebsiella pneumoniae ATCC BAA-1705.
The subject of assay [13] is Acinetobacter baumannii.
For assay [14], the system named is Bacillus cereus ATCC 11778.
Assay [15] deals with Enterococcus faecalis ATCC 29212.
For assay [16], the system named is Escherichia coli ATCC 25922.
In assay [17] the test system is Escherichia coli O157:H7.
Assay [18] relates to Listeria monocytogenes 10403s.
The subject of assay [19] is Salmonella enterica subsp. enterica serovar Typhimurium ATCC 13311.
For assay [20], the system named is Shigella sonnei ATCC 11060.
The test system of assay [21] is Staphylococcus aureus ATCC 25923.
The subject of assay [22] is Staphylococcus epidermidis ATCC 12228.
The test system of assay [23] is Vibrio cholerae O1 Inaba.
Assay [24] deals with Pseudomonas aeruginosa 1.
In assay [25] the test system is Pseudomonas aeruginosa.
For assay [26], the system named is Candida albicans ATCC 36232.
Assay [27] has as its system Escherichia coli ATCC 2592.
Assay [28] deals with Micrococcus luteus ATCC 9341.
Assay [29] has as its system Proteus vulgaris ATCC 6380.
The subject of assay [30] is Pseudomonas aeruginosa ATCC 9027.
Assay [31] has as its system Staphylococcus aureus ATCC 6538.
In assay [32] the test system is Staphylococcus aureus.

On to `CC(C)C[C@H](NC(=O)[C@H](C)NC(=O)CNC(=O)[C@H](CC(C)C)NC(=O)[C@@H](N)Cc1ccccc1)C(=O)N[C@@H](Cc1c[nH]c2ccccc12)C(=O)N[C@@H](CC(N)=O)C(=O)N[C@H](C(=O)N[C@@H](C)C(=O)N[C@@H](CCCCN)C(=O)N[C@@H](CCCN=C(N)N)C(=O)N[C@H](C(=O)N[C@@H](Cc1ccccc1)C(N)=O)C(C)C)C(C)C` [FLGALWNVAKRVF], for which the MIC was determined as 0.8 µM (≈ 1.22 µg/mL) in [1]; 1.6 µM (≈ 2.43 µg/mL) in [2]; 3.1 µM (≈ 4.71 µg/mL) in assay [3]; 1.6 µM (≈ 2.43 µg/mL) in assay [4]; 6.3 µM (≈ 9.58 µg/mL) in assay [5]; 1.6 µM (≈ 2.43 µg/mL) in assay [6]. The minimum inhibitory concentration (MIC) came out at 1.6 µM (≈ 2.43 µg/mL) in assay [7], 12.5 µM (≈ 19 µg/mL) in assay [8], 0.8 µM (≈ 1.22 µg/mL) in assay [9] and 3.1 µM (≈ 4.71 µg/mL) in assay [10].
On to `CC(C)C[C@H](NC(=O)[C@H](C)NC(=O)CNC(=O)[C@H](CC(C)C)NC(=O)[C@@H](N)Cc1ccccc1)C(=O)N[C@@H](Cc1c[nH]c2ccccc12)C(=O)N[C@@H](CC(N)=O)C(=O)N[C@H](C(=O)N[C@@H](CC(C)C)C(=O)N[C@@H](CCCCN)C(=O)N[C@@H](CO)C(=O)N[C@H](C(=O)N[C@@H](Cc1ccccc1)C(N)=O)C(C)C)C(C)C` [FLGALWNVLKSVF], for which the MIC in assay [1] was 3.1 µM (≈ 4.63 µg/mL); in [2] it was 0.8 µM (≈ 1.19 µg/mL); in assay [3] it was 3.1 µM (≈ 4.63 µg/mL); in assay [4] it was 3.1 µM (≈ 4.63 µg/mL); in assay [5], not below 50 µM; in assay [6] it was 0.8 µM (≈ 1.19 µg/mL). Besides, the minimal inhibitory concentration (MIC) in assay [7] is 0.4 µM (≈ 0.597 µg/mL); in assay [8] it was more than 50 µM; in assay [9], 0.4 µM (≈ 0.597 µg/mL); in assay [10], 0.8 µM (≈ 1.19 µg/mL).
Consider `CC[C@H](C)[C@H](N)C(=O)N[C@@H](CC(C)C)C(=O)N[C@@H](Cc1c[nH]c2ccccc12)C(=O)N[C@@H](C)C(=O)N[C@@H](CS)C(=O)N[C@@H](Cc1c[nH]c2ccccc12)C(=O)NCC(=O)N[C@@H](CC(C)C)C(=O)N[C@@H](CCCCN)C(=O)N[C@@H](CC(C)C)C(=O)N[C@@H](CC(C)C)C(=O)N[C@@H](CCCCN)C(=O)N[C@@H](Cc1ccc(O)cc1)C(=O)N[C@@H](CCCCN)C(=O)N[C@@H](CCCCN)C(=O)N[C@H](C(=O)N[C@@H](Cc1ccc(O)cc1)C(=O)O)[C@@H](C)CC` [ILWACWGLKLLKYKKIY], for which the results for the MIC in assay [11] and in [12] were 16 µM (≈ 34.2 µg/mL) and not below 128 µM, respectively.
As for `CC[C@H](C)[C@H](NC(=O)[C@H](CCCN=C(N)N)NC(=O)[C@H](CCCCN)NC(=O)[C@H](C)NC(=O)[C@@H](NC(=O)[C@@H](N)CCCCN)[C@@H](C)CC)C(=O)N[C@@H](Cc1c[nH]c2ccccc12)C(=O)N[C@@H](CCCCN)C(=O)N[C@H](C(=O)N[C@@H](CC(C)C)C(=O)N[C@@H](CCCN=C(N)N)C(=O)N[C@@H](CCCN=C(N)N)C(=O)N[C@@H](CCCN=C(N)N)C(=O)N[C@@H](CC(C)C)C(N)=O)[C@@H](C)CC` [KIAKRIWKILRRRL], the MIC in [13] was 2.11 µM (≈ 3.91 µg/mL); in assay [14], 4.22 µM (≈ 7.81 µg/mL); in assay [15], 67.6 µM (≈ 125 µg/mL); in [16], 8.45 µM (≈ 15.6 µg/mL); in [17], not below 33.8 µM; in [18], 1.05 µM (≈ 1.95 µg/mL). The MIC worked out at 2.11 µM (≈ 3.91 µg/mL) in assay [8]; 1.05 µM (≈ 1.95 µg/mL) in [19]; 2.11 µM (≈ 3.91 µg/mL) in assay [20]; 8.45 µM (≈ 15.6 µg/mL) in assay [21]; 2.11 µM (≈ 3.91 µg/mL) in assay [22]; 4.22 µM (≈ 7.81 µg/mL) in [23].
Consider `CC[C@H](C)[C@H](NC(=O)[C@H](CCCN=C(N)N)NC(=O)[C@H](CCCCN)NC(=O)[C@H](C)NC(=O)[C@@H](NC(=O)[C@@H](N)CCCCN)[C@@H](C)CC)C(=O)N[C@@H](Cc1c[nH]c2ccccc12)C(=O)N[C@@H](CCCCN)C(=O)N[C@H](C(=O)N[C@@H](CC(C)C)C(=O)N[C@@H](CCCN=C(N)N)C(=O)N[C@@H](CCCN=C(N)N)C(=O)N[C@@H](CCCN=C(N)N)C(N)=O)[C@@H](C)CC` [KIAKRIWKILRRR], for which the minimal inhibitory concentration (MIC) in assay [13] was determined as 4.5 µM (≈ 7.81 µg/mL); in [14], 9 µM (≈ 15.6 µg/mL); in [15], 144 µM (≈ 250 µg/mL); in assay [16] it was 18 µM (≈ 31.2 µg/mL); in assay [17] it was 18 µM (≈ 31.2 µg/mL); in assay [18], 2.25 µM (≈ 3.91 µg/mL). Further, the MIC is 2.25 µM (≈ 3.91 µg/mL) in assay [24]; 4.5 µM (≈ 7.81 µg/mL) in assay [25]; 1.12 µM (≈ 1.95 µg/mL) in [19]; 2.25 µM (≈ 3.91 µg/mL) in assay [20]; 36 µM (≈ 62.5 µg/mL) in [21]; 2.25 µM (≈ 3.91 µg/mL) in assay [22]. The compound also yielded a minimal inhibitory concentration (MIC) in [23] of 18 µM (≈ 31.2 µg/mL).
For `CC(C)C[C@H](NC(=O)[C@H](CCCCN)NC(=O)[C@H](Cc1ccccc1)NC(=O)[C@H](CC(C)C)NC(=O)[C@H](CC(C)C)NC(=O)[C@H](CCCCN)NC(=O)[C@@H](N)CCCCN)C(=O)N[C@@H](CCCCN)C(=O)N[C@@H](Cc1ccccc1)C(=O)N[C@@H](CCCCN)C(N)=O` [KKLLFKLKFK], the MIC was 2.41 µM (≈ 3.12 µg/mL) in assay [26]; 2.41 µM (≈ 3.12 µg/mL) in assay [27]; 2.41 µM (≈ 3.12 µg/mL) in [28]; not below 77.4 µM in assay [29]; 1.21 µM (≈ 1.56 µg/mL) in assay [30]; 9.67 µM (≈ 12.5 µg/mL) in [31]. The compound further returned a minimal inhibitory concentration (MIC) in assay [32] of 38.7 µM (≈ 50 µg/mL).
For `CC(C)C[C@H](NC(=O)[C@H](CCCCN)NC(=O)[C@H](Cc1ccccc1)NC(=O)[C@H](CC(C)C)NC(=O)[C@@H](NC(=O)[C@H](CCCCN)NC(=O)[C@@H](N)CCCCN)C(C)C)C(=O)N[C@@H](CCCCN)C(=O)N[C@@H](Cc1ccccc1)C(=O)N[C@@H](CCCCN)C(N)=O` [KKVLFKLKFK], the MIC is 2.44 µM (≈ 3.12 µg/mL) in assay [26]; 2.44 µM (≈ 3.12 µg/mL) in [27]; 2.44 µM (≈ 3.12 µg/mL) in assay [28]; not below 78.2 µM in [29]; 1.22 µM (≈ 1.56 µg/mL) in [30]; 9.78 µM (≈ 12.5 µg/mL) in [31]. The MIC in assay [32] was 19.6 µM (≈ 25 µg/mL).
`CC[C@H](C)[C@H](NC(=O)[C@H](CCCCN)NC(=O)[C@H](CCCCN)NC(=O)[C@H](Cc1ccc(O)cc1)NC(=O)[C@H](CCCCN)NC(=O)[C@H](CC(C)C)NC(=O)[C@H](CC(C)C)NC(=O)[C@H](CCCCN)NC(=O)[C@H](CC(C)C)NC(=O)CNC(=O)[C@H](Cc1c[nH]c2ccccc12)NC(=O)[C@H](CCCCN)NC(=O)[C@H](C)NC(=O)[C@H](Cc1c[nH]c2ccccc12)NC(=O)[C@H](CCCN=C(N)N)NC(=O)[C@@H](N)Cc1c[nH]c2ccccc12)C(=O)N[C@@H](Cc1ccc(O)cc1)C(=O)O` [WRWAKWGLKLLKYKKIY]: the MIC in [11] worked out at 1 µM (≈ 2.28 µg/mL); in [12], 2 µM (≈ 4.56 µg/mL).

As usually defined, the MIC is the least concentration at which growth counts as inhibited.
